# Assay results as given in patent EP4650353A1 (Shanghai Institute of Materia Medica, Chinese Academy of …, priority 2023, dated 2024).
# Target: T1, human GLP-1 receptor (Homo sapiens, UniProt P43220)
# T1 construct: HA (N); expressed in transfected cells
# Assay: GLP-1 receptor-mediated agonist activity: cAMP level in hGLP-1R/HEK293 cell line (HTRF)
# Assay type: cell-based
# Settings: cAMP levels in hGLP-1R/HEK293 cell line; Table 1; read-out: determined EC50
# T1 sequence (P43220 24-463): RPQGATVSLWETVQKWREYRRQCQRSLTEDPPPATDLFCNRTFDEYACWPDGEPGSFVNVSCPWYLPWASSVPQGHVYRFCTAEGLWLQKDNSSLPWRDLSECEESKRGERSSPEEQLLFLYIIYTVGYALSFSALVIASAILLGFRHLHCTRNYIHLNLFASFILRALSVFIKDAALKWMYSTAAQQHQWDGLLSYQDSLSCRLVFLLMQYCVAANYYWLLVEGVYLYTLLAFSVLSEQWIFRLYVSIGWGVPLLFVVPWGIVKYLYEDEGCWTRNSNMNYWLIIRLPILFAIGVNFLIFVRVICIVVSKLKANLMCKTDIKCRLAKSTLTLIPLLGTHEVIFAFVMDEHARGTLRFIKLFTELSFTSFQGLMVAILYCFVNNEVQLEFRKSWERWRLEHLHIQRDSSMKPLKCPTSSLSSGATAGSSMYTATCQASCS
row,EC50 [nM],SMILES
1,0.0052,"CCOc1cc(C(=O)O)cc2c1nc(CN1CCN(c3cccc4c3OC(C)(c3ccc(C(F)(F)F)cn3)O4)C=N1)n2C[C@@H]1CCO1 (stereo partly drawn) [Compound 66, 4-ethoxy-2-((4-(2-methyl-2-(5-(trifluoromethyl)pyridin-2-yl)benzo[d][1,3]dioxol-4-yl)-5,6-dihydro-1,2,4-triazin-1(4H)-yl)methyl)-1-(((S)-oxetan-2-yl)methyl)-1H-benzo[d]imidazole-6-carboxylic acid]"
2,0.0273,"[2H]C([2H])([2H])Oc1cc(C(=O)O)cc2c1nc(CN1CCN(c3cccc4c3OC(C)(c3ccc(Cl)cn3)O4)C=N1)n2C[C@@H]1CCO1 (stereo partly drawn) [Compound 70, 2-((4-(2-(5-chloropyridin-2-yl)-2-methylbenzo[d][1,3]dioxol-4-yl)-5,6-dihydro-1,2,4-triazin-1(4H)-yl)methyl)-4-(methoxy-d3)-1-(((S)-oxetan-2-yl)methyl)-1H-benzo[d]imidazole-6-carboxylic acid]"
3,0.0175,"[2H]C([2H])([2H])Oc1cc(C(=O)O)cc2c1nc(CN1CCN(c3cccc4c3OC(C)(c3ccc(Cl)cc3F)O4)C=N1)n2C[C@@H]1CCO1 (stereo partly drawn) [Compound 71, 2-((4-(2-(4-chloro-2-fluorophenyl)-2-methylbenzo[d][1,3]dioxol-4-yl)-5,6-dihydro-1,2,4-triazin-1(4H)-yl)methyl)-4-(methoxy-d3)-1-(((S)-oxetan-2-yl)methyl)-1H-benzo[d]imidazole-6-carboxylic acid]"
4,0.604,"[2H]C([2H])([2H])C([2H])([2H])Oc1cc(C(=O)O)cc2c1nc(CN1CCN(c3cccc4c3O[C@](C)(c3ccc(Cl)cc3F)O4)C=N1)n2C[C@@H]1CCO1 [Compound 76-2, 2-((4-((R)-2-(4-chloro-2-fluorophenyl)-2-methylbenzo[d][1,3]dioxol-4-yl)-5,6-dihydro-1,2,4-triazin-1(4H)-yl)methyl)-4-(ethoxy-d5)-1-(((S)-oxetan-2-yl)methyl)-1H-benzo[d]imidazole-6-carboxylic acid]"
5,0.0092,"COc1cc(Cl)ccc1C1(C)Oc2cccc(N3C=NN(Cc4nc5c(OC)cc(C(=O)O)cc5n4C[C@@H]4CCO4)CC3)c2O1 (stereo partly drawn) [Compound 83, 2-((4-(2-(4-chloro-2-methoxyphenyl)-2-methylbenzo[d][1,3]dioxol-4-yl)-5,6-dihydro-1,2,4-triazin-1(4H)-yl)methyl)-4-methoxy-1-(((S)-oxetan-2-yl)methyl)-1H-benzo[d]imidazole-6-carboxylic acid]"
6,0.0098,"[2H]C([2H])([2H])Oc1cc(C(=O)O)cc2c1nc(CN1CCN(c3cccc4c3OC(C)(c3ccc(Cl)cc3OC)O4)C=N1)n2C[C@@H]1CCO1 (stereo partly drawn) [Compound 84, 2-((4-(2-(4-chloro-2-methoxyphenyl)-2-methylbenzo[d][1,3]dioxol-4-yl)-5,6-dihydro-1,2,4-triazin-1(4H)-yl)methyl)-4-(methoxy-d3)-1-(((S)-oxetan-2-yl)methyl)-1H-benzo[d]imidazole-6-carboxylic acid]"
7,0.005,"CCOc1cc(C(=O)O)cc2c1nc(CN1CCN(c3cccc4c3OC(C)(c3ccc(Cl)cc3OC)O4)C=N1)n2C[C@@H]1CCO1 (stereo partly drawn) [Compound 85, 2-((4-(2-(4-chloro-2-methoxyphenyl)-2-methylbenzo[d][1,3]dioxol-4-yl)-5,6-dihydro-1,2,4-triazin-1(4H)-yl)methyl)-4-ethoxy-1-(((S)-oxetan-2-yl)methyl)-1H-benzo[d]imidazole-6-carboxylic acid]"
8,0.0212,"[2H]C([2H])([2H])C([2H])([2H])Oc1cc(C(=O)O)cc2c1nc(CN1CCN(c3cccc4c3OC(C)(c3ccc(F)cc3F)O4)C=N1)n2C[C@@H]1CCO1 (stereo partly drawn) [Compound 87, 2-((4-(2-(2,4-difluorophenyl)-2-methylbenzo[d][1,3]dioxol-4-yl)-5,6-dihydro-1,2,4-triazin-1(4H)-yl)methyl)-4-(ethoxy-d5)-1-(((S)-oxetan-2-yl)methyl)-1H-benzo[d]imidazole-6-carboxylic acid]"
9,0.0087,"COc1cc(C(F)(F)F)ccc1C1(C)Oc2cccc(N3C=NN(Cc4nc5c(OC)cc(C(=O)O)cc5n4C[C@@H]4CCO4)CC3)c2O1 (stereo partly drawn) [Compound 88, 4-methoxy-2-((4-(2-(2-methoxy-4-(trifluoromethyl)phenyl)-2-methylbenzo[d][1,3]dioxol-4-yl)-5,6-dihydro-1,2,4-triazin-1(4H)-yl)methyl)-1-(((S)-oxetan-2-yl)methyl)-1H-benzo[d]imidazole-6-carboxylic acid]"
10,0.0075,"[2H]C([2H])([2H])Oc1cc(C(=O)O)cc2c1nc(CN1CCN(c3cccc4c3OC(C)(c3ccc(C(F)(F)F)cc3OC)O4)C=N1)n2C[C@@H]1CCO1 (stereo partly drawn) [Compound 89, 4-(Methoxy-d3)-2-((4-(2-(2-methoxy-4-(trifluoromethyl)phenyl)-2-methylbenzo[d][1,3]dioxol-4-yl)-5,6-dihydro-1,2,4-triazin-1(4H)-yl)methyl)-1-(((S)-oxetan-2-yl)methyl)-1H-benzo[d]imidazole-6-carboxylic acid]"
11,0.0061,"CCOc1cc(C(=O)O)cc2c1nc(CN1CCN(c3cccc4c3OC(C)(c3ccc(C(F)(F)F)cc3OC)O4)C=N1)n2C[C@@H]1CCO1 (stereo partly drawn) [Compound 90, 4-ethoxy-2-((4-(2-(2-methoxy-4-(trifluoromethyl)phenyl)-2-methylbenzo[d][1,3]dioxol-4-yl)-5,6-dihydro-1,2,4-triazin-1(4H)-yl)methyl)-1-(((S)-oxetan-2-yl)methyl)-1H-benzo[d]imidazole-6-carboxylic acid]"

# Second part, the compound before the results:
row,SMILES,EC50 [nM]
1,"CCOc1cc(C(=O)O)cc2c1nc(CN1CCN(c3cccc4c3OC(C)(c3ccc(Cl)cc3F)O4)C=N1)n2C[C@@H]1CCO1 (stereo partly drawn) [Compound 68, 2-((4-(2-(4-chloro-2-fluorophenyl)-2-methylbenzo[d][1,3]dioxol-4-yl)-5,6-dihydro-1,2,4-triazin-1(4H)-yl)methyl)-4-ethoxy-1-(((S)-oxetan-2-yl)methyl)-1H-benzo[d]imidazole-6-carboxylic acid]",0.0064
2,"CCOc1cc(C(=O)O)cc2c1nc(CN1CCN(c3cccc4c3OC(C)(c3ccc(Cl)cn3)O4)C=N1)n2C[C@@H]1CCO1 (stereo partly drawn) [Compound 69, 2-((4-(2-(5-chloropyridin-2-yl)-2-methylbenzo[d][1,3]dioxol-4-yl)-5,6-dihydro-1,2,4-triazin-1(4H)-yl)methyl)-4-ethoxy-1-(((S)-oxetan-2-yl)methyl)-1H-benzo[d]imidazole-6-carboxylic acid]",0.0111
3,"[2H]C([2H])([2H])C([2H])([2H])Oc1cc(C(=O)O)cc2c1nc(CN1CCC(c3cccc4c3OC(C)(c3ccc(Cl)cn3)O4)CC1)n2C[C@@H]1CCO1 (stereo partly drawn) [Compound 72, 2-((4-(2-(5-chloropyridin-2-yl)-2-methylbenzo[d][1,3]dioxol-4-yl)piperidin-1-yl)methyl)-4-(ethoxy-d5)-1-(((S)-oxetan-2-yl)methyl)-1H-benzo[d]imidazole-6-carboxylic acid]",0.01
4,"[2H]C([2H])([2H])Oc1cc(C(=O)O)cc2c1nc(CN1CCC(c3cccc4c3OC(C)(c3ccc(Cl)cc3F)O4)CC1)n2C[C@@H]1CCO1 (stereo partly drawn) [Compound 74, 2-((4-(2-(4-chloro-2-fluorophenyl)-2-methylbenzo[d][1,3]dioxol-4-yl)piperidin-1-yl)methyl)-4-(methoxy-d3)-1-(((S)-oxetan-2-yl)methyl)-1H-benzo[d]imidazole-6-carboxylic acid]",0.0065
5,"[2H]C([2H])([2H])C([2H])([2H])Oc1cc(C(=O)O)cc2c1nc(CN1CCC(c3cccc4c3OC(C)(c3ccc(Cl)cc3F)O4)CC1)n2C[C@@H]1CCO1 (stereo partly drawn) [Compound 75, 2-((4-(2-(4-chloro-2-fluorophenyl)-2-methylbenzo[d][1,3]dioxol-4-yl)piperidin-1-yl)methyl)-4-(ethoxy-d5)-1-(((S)-oxetan-2-yl)methyl)-1H-benzo[d]imidazole-6-carboxylic acid]",0.003
6,"[2H]C([2H])([2H])C([2H])([2H])Oc1cc(C(=O)O)cc2c1nc(CN1CCN(c3cccc4c3OC(C)(c3ccc(Cl)c(F)c3F)O4)C=N1)n2C[C@@H]1CCO1 (stereo partly drawn) [Compound 77, 2-((4-(2-(4-chloro-2,3-difluorophenyl)-2-methylbenzo[d][1,3]dioxol-4-yl)-5,6-dihydro-1,2,4-triazin-1(4H)-yl)methyl)-4-(ethoxy-d5)-1-(((S)-oxetan-2-yl)methyl)-1H-benzo[d]imidazole-6-carboxylic acid]",0.0165
7,"CCOc1cc(C(=O)O)cc2c1nc(CN1CCN(c3cccc4c3OC(C)(c3ccc(Cl)c(F)c3F)O4)C=N1)n2C[C@@H]1CCO1 (stereo partly drawn) [Compound 78, 2-((4-(2-(4-chloro-2,3-difluorophenyl)-2-methylbenzo[d][1,3]dioxol-4-yl)-5,6-dihydro-1,2,4-triazin-1(4H)-yl)methyl)-4-ethoxy-1-(((S)-oxetan-2-yl)methyl)-1H-benzo[d]imidazole-6-carboxylic acid]",0.0115
8,"CCOc1cc(C(=O)O)cc2c1nc(CN1CCN(c3cccc4c3OC(C)(c3cc(F)c(Cl)cc3F)O4)C=N1)n2C[C@@H]1CCO1 (stereo partly drawn) [Compound 79, 2-((4-(2-(4-chloro-2,5-difluorophenyl)-2-methylbenzo[d][1,3]dioxol-4-yl)-5,6-dihydro-1,2,4-triazin-1(4H)-yl)methyl)-4-ethoxy-1-(((S)-oxetan-2-yl)methyl)-1H-benzo[d]imidazole-6-carboxylic acid]",0.0442
9,"[2H]C([2H])([2H])C([2H])([2H])Oc1cc(C(=O)O)cc2c1nc(CN1CCN(c3cccc4c3OC(C)(c3cc(F)c(Cl)cc3F)O4)C=N1)n2C[C@@H]1CCO1 (stereo partly drawn) [Compound 80, 2-((4-(2-(4-chloro-2,5-difluorophenyl)-2-methylbenzo[d][1,3]dioxol-4-yl)-5,6-dihydro-1,2,4-triazin-1(4H)-yl)methyl)-4-(ethoxy-d5)-1-(((S)-oxetan-2-yl)methyl)-1H-benzo[d]imidazole-6-carboxylic acid]",0.0438
10,"CCOc1cc(C(=O)O)cc2c1nc(CN1CCN(c3cccc4c3OC(C)(c3ccc(F)cc3F)O4)C=N1)n2C[C@@H]1CCO1 (stereo partly drawn) [Compound 86, 2-((4-(2-(2,4-difluorophenyl)-2-methylbenzo[d][1,3]dioxol-4-yl)-5,6-dihydro-1,2,4-triazin-1(4H)-yl)methyl)-4-ethoxy-1-(((S)-oxetan-2-yl)methyl)-1H-benzo[d]imidazole-6-carboxylic acid]",0.0289
